Laboratory results reported in ChEMBL document CHEMBL3997763 (Medchemcomm, 2016).
The source made the active and inactive calls. The rule behind the calls is not given here.

Key:
[1] = target: T1, 3-hydroxy-3-methylglutaryl-coenzyme A reductase (Homo sapiens) (UniProt P04035); test: Inhibition of human HMG-CoA reductase catalytic domain at 50 uM using HMG-CoA as substrate in presence of NADPH by colorimetric method relative to control
T1 sequence (whole entry): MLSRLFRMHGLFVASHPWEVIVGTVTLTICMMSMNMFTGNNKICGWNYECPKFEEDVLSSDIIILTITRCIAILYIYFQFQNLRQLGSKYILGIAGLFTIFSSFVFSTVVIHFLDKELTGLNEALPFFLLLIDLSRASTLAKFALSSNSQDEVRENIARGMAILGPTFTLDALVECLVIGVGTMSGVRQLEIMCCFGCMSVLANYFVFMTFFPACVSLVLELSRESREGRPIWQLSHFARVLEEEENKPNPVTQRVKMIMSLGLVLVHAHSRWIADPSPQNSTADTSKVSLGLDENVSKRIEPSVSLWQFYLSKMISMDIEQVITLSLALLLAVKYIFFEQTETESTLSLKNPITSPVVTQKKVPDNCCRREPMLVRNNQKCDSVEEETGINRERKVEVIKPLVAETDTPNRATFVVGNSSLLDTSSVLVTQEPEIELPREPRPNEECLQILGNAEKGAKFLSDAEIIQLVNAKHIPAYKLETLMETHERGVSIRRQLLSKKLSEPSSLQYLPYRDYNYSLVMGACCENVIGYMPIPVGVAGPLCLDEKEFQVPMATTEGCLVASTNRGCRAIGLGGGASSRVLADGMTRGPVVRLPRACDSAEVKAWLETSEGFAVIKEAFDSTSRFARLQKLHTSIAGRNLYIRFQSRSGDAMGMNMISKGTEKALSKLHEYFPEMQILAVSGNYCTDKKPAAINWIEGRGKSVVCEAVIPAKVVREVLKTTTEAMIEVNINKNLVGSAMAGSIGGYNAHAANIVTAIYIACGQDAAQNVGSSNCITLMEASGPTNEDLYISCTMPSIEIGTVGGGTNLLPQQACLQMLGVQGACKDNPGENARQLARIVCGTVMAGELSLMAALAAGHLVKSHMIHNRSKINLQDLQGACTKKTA

Rattus norvegicus [2] = test: Hypolipidemic activity in HFD-induced Charles Foster rat assessed as inhibition of hepatic HMG-CoA reductase activity by measuring […] at 100 mg/kg administered as single dose via oral gavage for 30 days simultaneously with high fat diet by colorimetric method; assay type: functional, organism-based
Rattus norvegicus [3] = organism: Rattus norvegicus; test: animal or person; assay type: functional; conditions: Charles Foster, po, 18 h
Description: Antihyperlipidemic activity in triton WR-1339 induced Charles Foster rat hyperlipidemia model assessed as inhibition of triglyceride level in serum at 100 mg/kg, po administered simultaneously with triton WR-1339 after 18 hrs by enzymatic method relative to control

[4] = target: T1, 3-hydroxy-3-methylglutaryl-coenzyme A reductase (Homo sapiens); test: Inhibition of human HMG-CoA reductase catalytic domain at 10 uM using HMG-CoA as substrate in presence of NADPH by colorimetric method relative to control
Rattus norvegicus [5] = test: Increase in phospholipid level in serum of triton WR-1339 induced Charles Foster rat hyperlipidemia model at 50 mg/kg, po administered simultaneously with triton WR-1339 after 18 hrs by enzymatic method relative to control; assay type: functional
Liver = test: Stability in Sprague-Dawley rat liver microsomes at 10 uM in absence of NADPH after 5 to 90 mins by LC-MS/MS analysis; assay type: ADME, microsome
[6] = Stability of the compound in simulated gastric fluid at 10 uM up to 60 mins by LC-MS/MS analysis

inhibition [1]: 74%
inhibition [4]: 56%
Stability (Liver): Stable
SMILES: COc1ccc(-c2cc3cc(C(c4c[nH]c5ccccc45)c4c[nH]c5ccccc45)cc(C(C)(C)C)c3oc2=O)cc1OC
inhibition (Rattus norvegicus [2]): Active
inhibition in vivo at 100 mg/kg (Rattus norvegicus [3]): 33%
Activity (Rattus norvegicus [5]): 22%
Stability [6]: Stable
